Measurements: patent publication US20190010167A1, “INHIBITORS OF THE MENIN-MLL INTERACTION” (Vitae Pharmaceuticals, Inc., priority 2015, published 2019)

Columns and labels:
[1] = target: T1, mutated menin / MLL-AF9 fusion protein (Homo sapiens, UniProt O00255); test: AlphaLISA menin/MLL binding assay, mutated menin (Assay 1); settings: biotinylated mutated menin 5 nM, MLL-AF9-FLAG lysate, read-out: Assay 1 Mutant Menin IC50
T1 construct: biotinylated (1) wild-type menin or (2) mutated menin (described in Nature (2012) Vol. 482, pp. 542-548); fused on or other part: Biotin attached chemically with Sulfo-NHS-Biotin; This is a label, not a fusion
T1 sequence (O00255 1-610): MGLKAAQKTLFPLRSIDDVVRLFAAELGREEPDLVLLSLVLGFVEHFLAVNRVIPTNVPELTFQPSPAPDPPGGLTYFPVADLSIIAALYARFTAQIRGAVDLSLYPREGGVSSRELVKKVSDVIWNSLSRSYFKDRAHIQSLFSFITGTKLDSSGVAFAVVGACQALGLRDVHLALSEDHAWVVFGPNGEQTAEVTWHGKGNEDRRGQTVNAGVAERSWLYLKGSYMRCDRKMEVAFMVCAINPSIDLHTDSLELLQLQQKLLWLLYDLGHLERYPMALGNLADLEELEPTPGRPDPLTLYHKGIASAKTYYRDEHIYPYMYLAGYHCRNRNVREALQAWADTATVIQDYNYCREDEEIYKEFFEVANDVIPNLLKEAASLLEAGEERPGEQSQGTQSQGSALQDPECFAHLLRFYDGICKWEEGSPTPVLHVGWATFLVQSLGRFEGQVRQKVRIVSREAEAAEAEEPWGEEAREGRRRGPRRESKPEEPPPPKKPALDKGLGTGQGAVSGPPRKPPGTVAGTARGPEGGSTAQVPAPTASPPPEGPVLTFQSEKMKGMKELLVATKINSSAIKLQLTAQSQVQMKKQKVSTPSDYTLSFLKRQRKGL
Description: Potencies of inhibitor compounds against menin/MLL binding were assessed by AlphaLISA assay using biotinylated (1) wild-type menin or (2) mutated menin (described in Nature (2012) Vol. 482, pp. 542-548) and MLL-AF9 fusion protein bearing a FLAG epitope at its C-terminus. Menin proteins were expressed in E. coli and covalently modified with biotin using EZ-Link™ Sulfo-NHS-Biotin (ThermoFisher Cat. No. 21217) according to manufacturer's protocol. MLL1-1,396 fused to AF91-92 and the C-terminal FLAG peptide was expressed in HEK293 cells and used as a lysate cleared at 21,000×g for 10 min.
Compounds (2 μL of solutions in DMSO) were dispensed in white 96-well half-area plates (Corning Cat. No. 3693) and incubated for 30 min at RT with 5 nM biotinylated menin and appropriate amount of MLL-AF9-FLAG lysate in 40 μL of 50 mM Tris-HCl buffer pH 7.4 containing 5% (v/v) DMSO, 50 mM NaCl, 0.01% (w/v) bovine serum albumin (BSA) and 1 mM DTT. To this incubation mixture, 40 μl of AlphaLISA anti-FLAG acceptor (PerkinElmer Cat. No. AL112C) and streptavidin donor (PerkinElmer Cat. No. 6760002) beads (10 μg/mL each) was added and incubation continued at RT for 60 min. Alpha (amplified luminescent proximity homogeneous assay) signal was measured on an Envision multi-label plate reader at the end of the incubation. All steps were conducted under dim fluorescent light.
These percent inhibition values were regressed against compound concentrations in the assay using four parameter logit non-linear curve fitting (XLFit, IDBS). The IC50 values were derived from the curve fitting as inflection points on the dose-response curves and are set out in Table 1 below.

[2] = target: T2, menin/MLL (Gal4-Menin and MLL1-46-VP16) in HEK293 cells (Homo sapiens, UniProt O00255); test: Mammalian cellular two-hybrid assay in HEK293 cells (Assay 2, cell assay); format: cell-based; settings: Gal4-Menin/MLL1-46-VP16 two-hybrid, NanoLuc luciferase reporter, 16-18 h
T2 construct: expressed in transfected cells; host or cells: HEK293 (ATCC)
In short: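 HEK293 cells co-transfected with Gal4-Menin, MLL1-46-VP16 and a 4×UAS secreted NanoLuc reporter, then exposed to compound for 16-18 h at 37 °C in 10% delipidated FBS (0.1% DMSO). Inhibition from secreted NanoLuc relative to DMSO and 5 μM MI-2-2, with 4-parameter IC50 fit. CellTiter-Glo measured toxicity.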

[3] = target: T3, wild-type menin / MLL-AF9 fusion protein (Homo sapiens, UniProt O00255); test: AlphaLISA menin/MLL binding assay, wild-type menin (Assay 1); settings: biotinylated wild-type menin 5 nM, MLL-AF9-FLAG lysate
T3 construct: made in house; host or cells: E. coli (menin); HEK293 cleared lysate (MLL-AF9-FLAG)
T3 sequence (O00255 1-610): T1 sequence (O00255 1-610)
In short: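 Biotinylated wild-type or mutated menin (5 nM, E. coli-expressed) was preincubated 30 min at RT with compound and HEK293 lysate containing MLL1-1,396–AF9 1-92–FLAG. Buffer was 50 mM Tris-HCl pH 7.4, 5% DMSO, 50 mM NaCl, 0.01% BSA, 1 mM DTT. Anti-FLAG acceptor and streptavidin donor beads (10 μg/mL each) were then added for 60 min. IC50 came from a four-parameter fit of the Alpha signal inhibition.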

T2 sequence (P04386 1-147 partner limits assumed, species assumed, one chain of several): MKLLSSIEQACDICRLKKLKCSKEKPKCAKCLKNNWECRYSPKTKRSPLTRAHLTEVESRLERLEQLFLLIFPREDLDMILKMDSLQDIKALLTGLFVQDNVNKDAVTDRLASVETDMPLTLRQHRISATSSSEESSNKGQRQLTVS

| SMILES | IC50 [1] [nM] | IC50 [2] [nM] | IC50 [3] [nM] |
| --- | --- | --- | --- |
| CC1(C)CN=C(N2CCC3(CCN(c4ncnc5sc(CC(F)(F)F)cc45)CC3)C2)S1 [Example 27, 4-(2-(5,5-dimethyl-4,5-dihydrothiazol-2-yl)-2,8-diazaspiro[4.5]decan-8-yl)-6-(2,2,2-trifluoroethyl)thieno[2,3-d]pyrimidine] | 100 to 1000 |  |  |
| CC1(C)CN=C(N2CC3(CCN(c4ncnc5sc(CC(F)(F)F)cc45)CC3)C2)S1 [Example 10, 4-(2-(5,5-dimethyl-4,5-dihydrothiazol-2-yl)-2,7-diazaspiro[3.5]nonan-7-yl)-6-(2,2,2-trifluoroethyl)thieno[2,3-d]pyrimidine] | 100 to 1000 |  |  |
| CC(C)N1CCC2(CCN(c3ncnc4sc(CC(F)(F)F)cc34)CC2)C1 [Example 25, 4-(2-isopropyl-2,8-diazaspiro[4.5]decan-8-yl)-6-(2,2,2-trifluoroethyl)thieno[2,3-d]pyrimidine] | 100 to 1000 | ≥ 1000 |  |
| FC(F)(F)Cc1cc2c(N3CCC4(CC3)CN(Cc3ccccc3)C4)ncnc2s1 [Example 1, 4-(2-benzyl-2,7-diazaspiro[3.5]nonan-7-yl)-6-(2,2,2-trifluoroethyl) thieno[2,3-d]pyrimidine] |  | ≥ 1000 | ≥ 1000 |
| N#Cc1ccc2c(CN3CC4(CCN(c5ncnc6sc(CC(F)(F)F)cc56)CC4)C3)c[nH]c2c1 [Example 20, 3-((7-(6-(2,2,2-trifluoroethyl)thieno[2,3-d]pyrimidin-4-yl)-2,7-diazaspiro[3.5]nonan-2-yl)methyl)-1H-indole-6-carbonitrile] |  | ≥ 1000 | 100 to 1000 |

More lines, now with the values ahead:

| IC50 [1] [nM] | IC50 [2] [nM] | IC50 [3] [nM] | SMILES |
| --- | --- | --- | --- |
| ≥ 1000 |  |  | CC1(C)CN=C(N2CC3(C2)CN(c2ncnc4ccc(OC(F)(F)F)cc24)C3)S1 [Example 88, 5,5-dimethyl-2-(6-(6-(trifluoromethoxy)quinazolin-4-yl)-2,6-diazaspiro[3.3]heptan-2-yl)-4,5-dihydrothiazole] |
|  | 100 to 1000 | < 100 | FC(F)(F)Cc1cc2c(N3CC4(CN(CC5CCCC(F)(F)C5)C4)C3)ncnc2s1 (stereo not drawn) [Example 63, 4-(6-((3,3-difluorocyclohexyl)methyl)-2,6-diazaspiro[3.3]heptan-2-yl)-6-(2,2,2-trifluoroethyl)thieno[2,3-d]pyrimidine] |
|  | 100 to 1000 | 100 to 1000 | FC(F)(F)Cc1cc2c(N3CCC4(CN(CC5CCOCC5)C4)C3)ncnc2s1 [Example 109, 4-(2-((tetrahydro-2H-pyran-4-yl)methyl)-2,6-diazaspiro[3.4]octan-6-yl)-6-(2,2,2-trifluoroethyl)thieno[2,3-d]pyrimidine] |
|  | 100 to 1000 | < 100 | N#Cc1ccc(CN2CCC3(CCN(c4ncnc5sc(CC(F)(F)F)cc45)C3)C2)cc1 (stereo not drawn) [Example 33, 4-((7-(6-(2,2,2-trifluoroethyl)thieno[2,3-d]pyrimidin-4-yl)-2,7-diazaspiro[4.4]nonan-2-yl)methyl)benzonitrile] |
